# Patent publication US20030224942A1, “Alkylamino-1,3,5-triazines, processes for their preparation and their use as herbicides and plant growth regulators” (priority 2001, published 2003)
# How the values were obtained:
# [1] = system: Cyperus spp., Echinochloa spp., Digitaria spp., Sagitaria spp. and Scirpus spp.; assay: Action on harmful plants in rice (paddy rice conditions, visual scoring); assay type: in vivo, typical rice weeds (gramineous and broad-leaved); details: applied into the dammed water, visual scoring about three weeks after application
# Procedure, shortened: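 Under paddy conditions with 2-3 cm dammed water, transplanted and sown rice plus weeds were treated at three-leaf stage (E. crus-galli at 1.5 leaves). Pots stayed in greenhouse under optimum growth conditions for the test period, with visual assessment of damage.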
# [2] = system: Chenopodium spp., Papaver spp., Polygonum spp., Veronica spp. or Viola spp.; assay: Post-emergence effect on weeds (greenhouse pot test, visual scoring); assay type: in vivo, monocotyledonous and dicotyledonous weeds; details: treated at three-leaf stage; visual scoring after about 3 to 4 weeks; application rate of 0.5 kg and less of active substance per hectare
Structure (SMILES),herbicidal activity against harmful plants which are typical for rice crops [1],herbicidal activity post-emergence against harmful plants [2]
CCc1nc(N)nc(NCc2cc(F)c(C(F)=C(F)F)c(F)c2)n1 [Product P6.49],very good herbicidal activity,very good herbicidal activity
CC(Nc1nc(N)nc(C(C)(C)F)n1)c1cccc(C(F)=C(F)F)c1 (stereo not drawn) [Product P17.1567],very good herbicidal activity,very good herbicidal activity
C#Cc1cccc(C(Nc2nc(N)nc(CC)n2)C2CC2)c1 (stereo not drawn) [Product P9.1579],very good herbicidal activity,very good herbicidal activity
CC#Cc1cc(CNc2nc(N)nc(C(F)CC)n2)ccc1F (stereo not drawn) [Product P26.384],very good herbicidal activity,very good herbicidal activity
CCC(F)c1nc(N)nc(NC(C)c2cc(F)c(C3CC3)c(F)c2)n1 (stereo not drawn) [Product P27.960],very good herbicidal activity,very good herbicidal activity
C#Cc1cccc(C(Nc2nc(N)nc(C(C)(C)F)n2)C2CC2)c1 (stereo not drawn) [Product P19.1579],very good herbicidal activity,very good herbicidal activity
CC#Cc1c(F)cc(C(Nc2nc(N)nc(C(C)(C)F)n2)C2CC2)cc1F (stereo not drawn) [Product P19.428],very good herbicidal activity,very good herbicidal activity
CCC(F)c1nc(N)nc(NCc2cccc(C3CC3)c2)n1 (stereo not drawn) [Product P26.1603],very good herbicidal activity,very good herbicidal activity
CC#Cc1ccc(CNc2nc(N)nc(C(C)C)n2)cc1 [Product P11.1583],very good herbicidal activity,very good herbicidal activity
Cc1nc(N)nc(NCc2cc(F)c(C3CC3)c(F)c2)n1 [Product P1.960],very good herbicidal activity,very good herbicidal activity
Cc1nc(N)nc(NCc2ccc(F)c(C(F)=C(F)F)c2)n1 [Product P1.5],very good herbicidal activity,very good herbicidal activity
CC#Cc1ccc(CNc2nc(N)nc(C(F)CC)n2)cc1 (stereo not drawn) [Product P26.1583],very good herbicidal activity,very good herbicidal activity
CCc1nc(N)nc(NC(c2cccc(C(F)=C(F)F)c2)C2CC2)n1 (stereo not drawn) [Product P9.1567],very good herbicidal activity,very good herbicidal activity
CC(F)c1nc(N)nc(NCc2ccc(F)c(C(F)=C(F)F)c2)n1 (stereo not drawn) [Product P21.5],very good herbicidal activity,very good herbicidal activity
CC(F)C#Cc1ccc(C(C)Nc2nc(N)nc(C(C)F)n2)cc1 (stereo not drawn) [Product P22.1598],very good herbicidal activity,very good herbicidal activity
CC(F)c1nc(N)nc(NC(c2cccc(C(F)=C(F)F)c2)C2CC2)n1 (stereo not drawn) [Product P24.1567],very good herbicidal activity,very good herbicidal activity
CCc1nc(N)nc(NCc2cccc(C(F)=C(F)F)c2)n1 [Product P6.1567],very good herbicidal activity,very good herbicidal activity
C#Cc1ccc(CNc2nc(C)nc(N)n2)cc1 [Product P1.1580],very good herbicidal activity,very good herbicidal activity
C#Cc1cc(CNc2nc(N)nc(C(F)CC)n2)ccc1F (stereo not drawn) [Product P26.309],very good herbicidal activity,very good herbicidal activity
CC#Cc1cccc(C(Nc2nc(C)nc(N)n2)C2CC2)c1 (stereo not drawn) [Product P4.1582],very good herbicidal activity,very good herbicidal activity
CCc1nc(N)nc(NC(C)c2cc(F)c(C3CC3)c(F)c2)n1 (stereo not drawn) [Product P7.960],very good herbicidal activity,very good herbicidal activity

Structure (SMILES),herbicidal activity against harmful plants which are typical for rice crops [1],herbicidal activity post-emergence against harmful plants [2]
CC(F)c1nc(N)nc(NCc2ccc(C3CC3)cc2)n1 (stereo not drawn) [Product P21.1604],very good herbicidal activity,very good herbicidal activity
CC(F)c1nc(N)nc(NC(C)c2ccc(F)c(C3CC3)c2)n1 (stereo not drawn) [Product P22.916],very good herbicidal activity,very good herbicidal activity
Cc1nc(N)nc(NC(c2ccc(C3CC3)cc2)C2CC2)n1 (stereo not drawn) [Product P4.1604],very good herbicidal activity,very good herbicidal activity
CC#Cc1c(F)cc(C(Nc2nc(N)nc(C(C)C)n2)C2CC2)cc1F (stereo not drawn) [Product P14.428],very good herbicidal activity,very good herbicidal activity
Cc1nc(N)nc(NC(c2cccc(C3CC3)c2)C2CC2)n1 (stereo not drawn) [Product P4.1603],very good herbicidal activity,very good herbicidal activity
CC(O)C#Cc1cc(C(C)Nc2nc(N)nc(C(C)C)n2)ccc1F (stereo not drawn) [Product P12.840],very good herbicidal activity,very good herbicidal activity
CC#Cc1cc(C(C)Nc2nc(N)nc(C(C)(C)F)n2)ccc1F (stereo not drawn) [Product P17.384],very good herbicidal activity,very good herbicidal activity
CC(C)(F)c1nc(N)nc(NCc2ccc(C3CC3)cc2)n1 [Product P16.1604],very good herbicidal activity,very good herbicidal activity
C#Cc1ccc(CNc2nc(N)nc(C(C)F)n2)cc1 (stereo not drawn) [Product P21.1580],very good herbicidal activity,very good herbicidal activity
Cc1nc(N)nc(NC(C)c2cc(F)c(C(F)=C(F)F)c(F)c2)n1 (stereo not drawn) [Product P2.49],very good herbicidal activity,very good herbicidal activity
CC#Cc1cccc(C(C)Nc2nc(N)nc(C(C)F)n2)c1 (stereo not drawn) [Product P22.1582],very good herbicidal activity,very good herbicidal activity
CCCCC#Cc1cccc(C(C)Nc2nc(N)nc(C(C)(C)F)n2)c1 (stereo not drawn) [Product P17.1594],very good herbicidal activity,very good herbicidal activity
CC(O)C#Cc1cccc(C(C)Nc2nc(N)nc(C(C)F)n2)c1 (stereo not drawn) [Product P22.1600],very good herbicidal activity,very good herbicidal activity
C#Cc1ccc(CNc2nc(N)nc(C(F)CC)n2)cc1 (stereo not drawn) [Product P26.1580],very good herbicidal activity,very good herbicidal activity
CC(O)C#Cc1ccc(C(C)Nc2nc(N)nc(C(C)(C)F)n2)cc1 (stereo not drawn) [Product P17.1601],very good herbicidal activity,very good herbicidal activity
CC#Cc1c(F)cc(CNc2nc(C)nc(N)n2)cc1F [Product P1.428],very good herbicidal activity,very good herbicidal activity
C#Cc1ccc(CNc2nc(N)nc(CC)n2)cc1 [Product P6.1580],very good herbicidal activity,very good herbicidal activity
C#Cc1ccc(C(Nc2nc(N)nc(C(C)F)n2)C2CC2)cc1 (stereo not drawn) [Product P24.1580],very good herbicidal activity,very good herbicidal activity
CC#Cc1cccc(CNc2nc(N)nc(C(C)C)n2)c1 [Product P11.1582],very good herbicidal activity,very good herbicidal activity
CC(Nc1nc(N)nc(C(C)(C)F)n1)c1ccc(F)c(C2CC2)c1 (stereo not drawn) [Product P17.916],very good herbicidal activity,very good herbicidal activity
C#Cc1cccc(C(Nc2nc(N)nc(C(F)CC)n2)C2CC2)c1 (stereo not drawn) [Product P29.1579],very good herbicidal activity,very good herbicidal activity
